{"source": "patent US20100035802A1", "about": "“PARTICULAR SHORT-CHAIN PEPTIDE CANCER DRUG AND ITS TREATMENT” (priority 2007, published 2010)", "key": {"cancer cells": {"tested_on": "cancer cells", "assay": "animal experiments: growth of cancer cells added with the short-chain peptide", "format": "in vivo", "conditions": "after having been added with the short-chain peptide for a certain period of time", "description": "(§1) In Attachment, Photos 1˜3 show the cell cycles of liver cancer cells respectively added and not added with the particular short-chain peptide in cell experiments. Photos 4 and 5 show the growth of cancer cells respectively added and not added with the particular short-chain peptide in animal experiments."}, "liver cancer cells": {"tested_on": "liver cancer cells", "assay": "cell experiments: survival and death rate of cancer cells added with the short-chain peptide", "format": "cell-based", "description": "The percent of normal cancer cells 1 is equal to the number of normal cancer cells divided by the summation of the number of normal cancer cells, the number of interphase cancer cells and the number of mitotic phase cancer cells. The percent of interphase cancer cells 2 is equal to the number of interphase cancer cells divided by the summation of the number of normal cancer cells, the number of interphase cancer cells and the number of mitotic phase cancer cells. The percent of mitotic phase cancer cells 3 is equal to the number of mitotic phase cancer cells divided by the summation of the number of normal cancer cells, the number of interphase cancer cells and the number of mitotic phase cancer cells. The percent of dead cancer cells 4 is equal to the number of dead cancer cells divided by the summation of the number of normal cancer cells, the number of interphase cancer cells, the number of mitotic phase cancer cells and the number of dead cancer cells.\nIn cell experiments, the survival rate of cancer cells added with none of the short-chain peptide is as high as 95%. Apoptosis of cancer cells begins as soon as the short-chain peptide is added to cancer cells; it's obviously found out that after 24 hours, the survival rate of cancer cells is lowered to about 25% and the death rate is raised to about 70%, 35 to 40 times of normal death rate.\nas §1"}}, "data": [{"substance": "RGDLASLQKAAHGHVRKAFKSHVSTLTDLQPYMRQFVAHLQETSPLRD (RGDLASLQKAAHGHVRKAFKSHVSTLTDLQPYMRQFVAHLQETSPLRD) [short-chain peptide, unique short-chained peptide composed of 48 amino acids]", "values": [{"measurement": "death of cancer cells in animal experiments (Photo 5)", "setting": "cancer cells", "value": "die massively via apoptosis"}, {"measurement": "effect on cell cleavage of cancer cells", "setting": "liver cancer cells; cancer cells added with the short-chain peptide", "value": "stagnating on the stage of cell cleavage for being further induced to apoptosis to death"}, {"measurement": "death rate of cancer cells", "setting": "liver cancer cells; cell experiments, after 24 hours with the short-chain peptide", "value": "about 70%"}, {"measurement": "survival rate of cancer cells", "setting": "liver cancer cells; cell experiments, after 24 hours with the short-chain peptide (without peptide 95%)", "value": "about 25%"}, {"measurement": "death rate of the liver cancer cells", "setting": "liver cancer cells; liver cancer cells, after 24-hour culture, repeated experiments", "value": "about 70%"}]}]}
